Key:
[1] = system: HCV replicons (NS3-NS5B regions of HCV type 1b) in Huh-7 luc/neo (Huh-Luc) cells; assay: Replicon assay (HCV RNA replication, luciferase read-out); assay type: cell-based; settings: Hepatitis C virus, Huh-7, 72 h, incubation of three days, luciferase activity
Method: The in vitro antiviral activity against HCV of the compounds of formula (I) was tested in a cellular HCV replicon system based on Lohmann et al. (1999) Science 285:110-113, with the further modifications described by Krieger et al. (2001) Journal of Virology 75: 4614-4624, which is further exemplified in the examples section. This model, while not a complete infection model for HCV, is widely accepted as the most robust and efficient model of autonomous HCV RNA replication currently available. […] It will be appreciated that it is important to distinguish between compounds that specifically interfere with HCV functions from those that exert cytotoxic or cytostatic effects in the HCV replicon model, and as a consequence cause a decrease in HCV RNA or linked reporter enzyme concentration. […]
The replicon cells were plated in 384 well plates in the presence of the test and control compounds which were added in various concentrations. Following an incubation of three days, HCV replication was measured by assaying luciferase activity (using standard luciferase assay substrates and reagents and a Perkin Elmer ViewLux™ ultraHTS microplate imager). […] The inhibitory activity of the compound on luciferase activity was monitored on the Huh-Luc cells, enabling a dose-response curve for each test compound.

HCV NS3/4A protease = HCV NS3/4A protease (Hepatitis C virus genotype 1a, UniProt P27958); assay: Inhibition assay (enzymatic assay, depsipeptide substrate hydrolysis); assay type: biochemical; also: full-length NS3 protease 1 nM, 25 µM NS4A cofactor, 0.5 µM substrate
Chain of HCV NS3/4A protease (P27958 1027-1657): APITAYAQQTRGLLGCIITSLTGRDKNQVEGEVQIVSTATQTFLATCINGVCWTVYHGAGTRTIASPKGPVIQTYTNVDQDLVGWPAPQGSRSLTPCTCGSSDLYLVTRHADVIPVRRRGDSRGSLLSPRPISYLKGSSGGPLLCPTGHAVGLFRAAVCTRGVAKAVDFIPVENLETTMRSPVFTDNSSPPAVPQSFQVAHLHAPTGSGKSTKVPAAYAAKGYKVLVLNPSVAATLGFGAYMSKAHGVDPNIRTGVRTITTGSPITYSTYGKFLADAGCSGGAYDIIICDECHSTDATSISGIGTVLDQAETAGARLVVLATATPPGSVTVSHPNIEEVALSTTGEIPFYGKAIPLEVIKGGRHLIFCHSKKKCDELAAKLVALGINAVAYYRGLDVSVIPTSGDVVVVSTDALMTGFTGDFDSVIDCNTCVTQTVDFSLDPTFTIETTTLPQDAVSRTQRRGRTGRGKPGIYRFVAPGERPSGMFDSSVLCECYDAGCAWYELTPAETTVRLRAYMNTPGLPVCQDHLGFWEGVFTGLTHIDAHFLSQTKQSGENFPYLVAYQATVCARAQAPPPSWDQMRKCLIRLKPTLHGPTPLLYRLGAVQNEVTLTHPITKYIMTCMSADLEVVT
Method: [Landro, 1997 # Biochem 36 9340-9348]. […] The solutions were stored at −20° C. between measurements.
[Liu, 1999 Analytical Biochemistry 267 331-335].

Compound CN1CCCC/C=C\[C@@H]2C[C@@]2(C(=O)O)NC(=O)[C@@H]2C[C@@H](n3nnc(-c4ccccc4)n3)C[C@H]2C1=O [Compound 9, 17-(5-phenyltetrazol-2-yl)-13-methyl-2,14-dioxo-3,13-diazatricyclo[13.3.0.0^4,6]octadec-7-ene-4-carboxylic acid] has an EC50 [1] of over 10 µM and a Ki (HCV NS3/4A protease) of over 1000 nM.
CN1CCCC/C=C\[C@@H]2C[C@@]2(C(=O)NS(=O)(=O)C2CC2)NC(=O)[C@@H]2C[C@@H](n3nnc(-c4ccccc4)n3)C[C@H]2C1=O [Compound 10, N-[17-(5-phenyltetrazol-2-yl)-13-methyl-2,14-dioxo-3,13-diazatricyclo[13.3.0.0^4,6]octadec-7-ene-4-carbonyl](cyclopropyl)sulfonamide] was tested, and the EC50 [1] was 3.43 µM and the Ki (HCV NS3/4A protease) was 30 nM.
